Data published in patent EP4471048A1, “PEPTIDE INHIBITORS OF INTERLEUKIN-23 RECEPTOR” (Zealand Pharma A/S, priority 2023, dated 2024).
Like-named read-outs stand apart in the source and are kept apart here. *1 amine or outer side, *2 acyl side, *3 side chain or, on linkers, in order; H or OH if unused. Where a SMILES comes first, the peptide text is derived from it. Bridges are numbered along the chain shown (N, C = ends). [ ]: non-standard residue; d: D form. 2Nal = N[C@@H](Cc1ccc2ccccc2c1)C(=O)O; AEF = NCCOc1ccc(C[C@H](N)C(=O)O)cc1; X1 = O=C(Cc1ccc(CN[*:1])cc1)[*:2]; 3Pal = N[C@@H](Cc1cccnc1)C(=O)O; αMeL = CC(C)C[C@](C)(N)C(=O)O; CH2COCH2 = O=C(C[*:1])C[*:2]; 3Amb = NCc1cccc(C(=O)O)c1; Dab = NCC[C@H](N)C(=O)O

Assays:
[1] = biological target: T1, human IL-23R (Homo sapiens, UniProt Q5VWK5); experiment: biochemical
T1 sequence (Q5VWK5 22-629): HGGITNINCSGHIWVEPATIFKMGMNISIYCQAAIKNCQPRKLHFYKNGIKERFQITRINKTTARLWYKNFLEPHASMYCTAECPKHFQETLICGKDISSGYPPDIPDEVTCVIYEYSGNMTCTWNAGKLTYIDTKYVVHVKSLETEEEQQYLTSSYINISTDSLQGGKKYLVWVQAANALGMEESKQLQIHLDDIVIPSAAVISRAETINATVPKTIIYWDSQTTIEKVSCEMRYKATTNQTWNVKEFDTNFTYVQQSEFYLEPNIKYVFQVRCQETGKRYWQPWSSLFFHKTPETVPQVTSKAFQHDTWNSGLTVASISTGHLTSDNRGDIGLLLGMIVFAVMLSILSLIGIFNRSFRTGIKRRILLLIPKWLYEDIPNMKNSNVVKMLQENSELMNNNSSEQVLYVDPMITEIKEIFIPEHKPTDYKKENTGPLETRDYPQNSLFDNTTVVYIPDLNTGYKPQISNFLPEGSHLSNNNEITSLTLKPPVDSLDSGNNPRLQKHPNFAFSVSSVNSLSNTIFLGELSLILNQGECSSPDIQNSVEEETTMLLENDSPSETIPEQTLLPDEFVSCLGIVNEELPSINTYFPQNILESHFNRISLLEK
Summary of the method: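 BRET displacement of a TAMRA-labelled reference compound from N-terminal Nanoluc-IL-23R fusion protein in membranes from stably transfected HEK293 cells. Incubation 2 h at room temperature, then Nanoluc substrate was added and the TAMRA/Nanoluc ratio read. IC50 and maximal displacement came from 4-parameter logistic fits.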

[2] = Peptide stability in simulated intestinal fluid (SIF); assay type: in vitro ADME; conditions: 37 °C, porcine pancreatin; for remaining at 1 h, 10 µM / remaining at 4 h, 10 µM: pig; for remaining at 1 h, 10 µM: pH 6.8, 1 h
Summary of the method: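 Peptides were incubated at 37 °C with gentle shaking in pH 6.8 potassium phosphate SIF containing porcine pancreatin (10 g/L). Supernatants were analysed by LC-HRMS. Percent remaining at each timepoint, including 4 h, was calculated relative to time zero from absolute peak areas.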

[3] = biological target: IL-23 mediated signalling (Homo sapiens, UniProt Q5VWK5); experiment: Functional inhibition of IL-23 mediated STAT3 signalling (phospho-STAT3 MSD) in DB cells; assay type: cell-based; conditions: for Emax: read-out: hIL-23 (pSTAT3) antagonist % inhibition
Source text: Upon binding of IL-23, the IL-23R forms a heterodimer signalling complex together with IL-12R β1, which through the JAK2/STAT3 pathway promotes phosphorylation of STAT3 to form phospho-STAT3.
For compounds tested in this assay, the response was normalized relative to control values to calculate the IC50 and maximal inhibitory response from a concentration response curve of the compound in presence of a fixed concentration of human IL-23.
The assay procedure was as follows. […] Following preincubation of the DB cells with inhibitor for 15 min in a cell incubator (37 °C, 5% CO2), 20 µL of the prepared 3X the EC80 of hIL-23 solution was added to each well and incubated for 90 min in a cell incubator (37 °C, 5% CO2). For some wells buffer only or IL-23 only corresponding to the EC80 was added to obtain readouts needed for normalization. To terminate the assay, the plate was spun at 1000 G for 5 min to pellet cells, the supernatant removed using an 8-channel manual pipette, and then added 50 µL/well Complete Lysis Buffer from the MSD STAT3 kit (Cat# K150SVD, Mesoscale) to the cell pellet. To completely lyse cells to release phospho-STAT3 for detection, the plate was shaken for 10 min at room temperature (500 rpm) sealed with aluminium foil and placed at -80 °C for a minimum of 15 min. Detection of the phospho-STAT3 level in the cell lysate from the individual wells was determined using the MSD STAT3 kit (Cat# K150SVD, Mesoscale) and read on a Meso QuickPlex SQ 120 plate reader (Mesoscale).
For data analysis raw data counts from the Meso QuickPlex SQ 120 plate reader were normalized relative to the response by the EC80 of h1L-23 alone (no compound added) and the buffer level. Compound potency (IC50) and maximal inhibitory response (% inhibition) were estimated by computer-aided curve fitting using a 4-parameter logistic (4PL) nonlinear model. […] Table 3-2: hIL-23 (pSTAT3) antagonist IC50 and % inhibition

[4] = Peptide stability in simulated gastric fluid (SGF); assay type: in vitro ADME; conditions: pig, simulated gastric fluid (SGF) with porcine pepsin (3.2 g/L), pH 1.2, 10 µM, 37 °C, porcine pepsin; for remaining at 1 h, 10 µM: pH 1.2, 1 h, read-out: SGF (% remaining 1 h); for remaining at 4 h, 10 µM: pH 1.2, 4 h, read-out: SGF (% remaining 4 h)
Summary of the method: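 Peptide incubated at 37 °C with gentle shaking in SGF (NaCl, pH 1.2). Samples centrifuged, diluted and analysed by LC-HRMS; percent remaining at each timepoint from absolute peak areas relative to time zero, with 4 h as the reference point.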

[5] = pH 6.8, 4 h, read-out: SIF (% remaining 4 h)
[6] = Table 3-2, DB cells, hIL-23 at EC80, read-out: hIL-23 (pSTAT3) antagonist IC50
[7] = Table 3-2, maximal inhibitory response, DB cells, hIL-23 at EC80

Compound | % displacement (hIL-23R NIuc) [1] | IC50 [1] | Ki [1] | remaining at 1 h, 10 µM [2] | remaining at 4 h, 10 µM [2, 5] | IC50 [3, 6] | Emax [3, 7] | remaining at 1 h, 10 µM [4] | remaining at 4 h, 10 µM [4] | Emax ([1]; read-out: % displacement (hIL-23R NIuc)) | SIF (% remaining 4 h) ([2]; 10 µM, pH 6.8, 4 h) | remaining at 4 h, 10 µM ([2]; SAR tables, % peptide remaining, pH 6.8, 4 h, read-out: SIF (% after 4 h)) | IC50 ([3]; SAR tables 2-1 to 2-7, DB cells, hIL-23 at EC80, read-out: IC50 (pSTAT3)) | Emax ([3]; DB)
CC(C)C[C@]1(C)NC(=O)[C@H](Cc2ccc3ccccc3c2)NC(=O)[C@H](Cc2ccc(OCCN)cc2)NC(=O)[C@@H]2CSCC(=O)CSC[C@H](NC(=O)[C@H](CO)NC(=O)Cc3ccc(cc3)CNC(=O)CC[C@@H](C(=O)N[C@H](CCCNC(=N)N)C(N)=O)NC1=O)C(=O)N[C@@H](Cc1c[nH]c3ccccc13)C(=O)N[C@@H](CCC(N)=O)C(=O)N2 [Ref 80, [4-Aminomethyl-phenylacetyl](1c)*SC(2a)WQC(2a)[Y(2-aminoethoxy)][2-Nal][2-Me-Leu]E(1c)[{d}R]-[NH2], reference compound] ([X1]SCWQC[AEF][2Nal][αMeL]E[dR]-NH2; linker 3-6 via CH2COCH2; lactam N-10) | 98% | 0.18 nM | 0.15 nM | 84% | 86% | 11 nM | 97% | – | – | – | – | – | – | –
CC(C)C[C@@H]1NC(=O)[C@H](Cc2ccc3ccccc3c2)NC(=O)[C@H](Cc2c[nH]c3ccccc23)NC(=O)[C@@H]2CSCC(=O)CSC[C@H](NC(=O)[C@H](CO)NC(=O)c3cccc(c3)CNC(=O)CC[C@@H](C(=O)N[C@@H](CCCNC(=N)N)C(N)=O)NC1=O)C(=O)N[C@@H](Cc1c[nH]c3ccccc13)C(=O)N[C@@H](CCC(N)=O)C(=O)N2 [Ref 37, [(3-Aminomethyl)benzoyl](1c)*SC(2a)WQC(2a)W[2-Nal]LE(1c)R-[NH2], reference compound] ([3Amb]SCWQCW[2Nal]LER-NH2; linker 3-6 via CH2COCH2; lactam N-10) | 103% | 12 nM | 9.87 nM | 0% | 0% | 45 nM | 89% | 2% | 1% | – | – | – | – | –
CC(C)C[C@]1(C)NC(=O)[C@H](Cc2ccc3ccccc3c2)NC(=O)[C@H](Cc2ccc(OCCN)cc2)NC(=O)[C@@H]2CSCC(=O)CSC[C@H](NC(=O)[C@H](CO)NC(=O)Cc3ccc(cc3)CNC(=O)CC[C@@H](C(=O)N[C@@H](CCN)C(N)=O)NC1=O)C(=O)N[C@@H](Cc1c[nH]c3ccccc13)C(=O)N[C@@H](CCC(N)=O)C(=O)N2 [Ref 82, [4-Aminomethyl-phenylacetyl](1c)*SC(2a)WQC(2a)[Y(2-aminoethoxy)][2-Nal][2-Me-Leu]E(1c)[Dab]-[NH2], reference compound] ([X1]SCWQC[AEF][2Nal][αMeL]E[Dab]-NH2; linker 3-6 via CH2COCH2; lactam N-10) | 103% | 0.082 nM | 0.0665 nM | 95% | 77% | 11 nM | 97% | – | – | – | – | – | – | –
CNC(=O)[C@H](Cc1cccnc1)NC(=O)[C@H](CCN)NC(=O)[C@@H]1CCC(=O)NCCCC[C@H]2CC(=O)NCC(=O)N[C@@H](Cc3c[nH]c4ccccc34)C(=O)N[C@@H](CCC(N)=O)C(=O)N[C@@H](CCC(=O)N2)C(=O)N[C@@H](Cc2ccc(OCCN)cc2)C(=O)N[C@@H](Cc2ccc3ccccc3c2)C(=O)N[C@@](C)(CC(C)C)C(=O)N1 [Compound 99, [beta-hLys](1c)(6c)^†GWQE(6c)[Y(2-aminoethoxy)][2-Nal][2-Me-Leu]E(1c)[Dab][3-(3-Pyridyl)-Ala]-[NHMe]] | – | 0.024 nM | – | 74% | – | – | 100% | 104% | 101% | 101% | 42% | 42% | 0.014 nM | –
CC(C)C[C@]1(C)NC(=O)[C@H](Cc2ccc3ccccc3c2)NC(=O)[C@H](Cc2ccc(OCCN)cc2)NC(=O)[C@@H]2CSCC(=O)CSC[C@H](NC(=O)[C@H](CO)NC(=O)c3cccc(c3)CNC(=O)CC[C@@H](C(=O)N[C@@H](CCCNC(=N)N)C(=O)N[C@@H](Cc3cccnc3)C(N)=O)NC1=O)C(=O)N[C@@H](Cc1c[nH]c3ccccc13)C(=O)N[C@@H](CCC(N)=O)C(=O)N2 [Ref 78, [(3-Aminomethyl)benzoyl](1c)*SC(2a)WQC(2a)[Y(2-aminoethoxy)][2-Nal][2-Me-Leu]E(1c)R[3-(3-Pyridyl)-Ala]-[NH2], reference compound] ([3Amb]SCWQC[AEF][2Nal][αMeL]ER[3Pal]-NH2; linker 3-6 via CH2COCH2; lactam N-10) | 100% | 0.025 nM | 0.0205 nM | 5% | 0% | 0.13 nM | 100% | – | – | – | – | – | – | –
CC(C)C[C@]1(C)NC(=O)[C@H](Cc2ccc3ccccc3c2)NC(=O)[C@H](Cc2ccc(OCCN)cc2)NC(=O)[C@@H]2CSCC(=O)CSC[C@H](NC(=O)[C@H](CO)NC(=O)Cc3ccc(cc3)CNC(=O)CC[C@@H](C(=O)N[C@@H](CO)C(N)=O)NC1=O)C(=O)N[C@@H](Cc1c[nH]c3ccccc13)C(=O)N[C@@H](CCC(N)=O)C(=O)N2 [Ref 81, [4-Aminomethyl-phenylacetyl](1c)*SC(2a)WQC(2a)[Y(2-aminoethoxy)][2-Nal][2-Me-Leu]E(1c)S-[NH2], reference compound] | 101% | 0.39 nM | 0.318 nM | 99% | 77% | 21 nM | 95% | – | – | – | – | – | – | –
CC(C)C[C@]1(C)NC(=O)[C@H](Cc2ccc3ccccc3c2)NC(=O)[C@H](Cc2ccc(OCCN)cc2)NC(=O)[C@@H]2CCNC(=O)CC[C@H](NC(=O)[C@H](CO)NC(=O)Cc3ccc(cc3)CNC(=O)CC[C@@H](C(=O)N[C@@H](CCN)C(N)=O)NC1=O)C(=O)N[C@@H](Cc1c[nH]c3ccccc13)C(=O)N[C@@H](CCC(N)=O)C(=O)N2 [Ref 125, [4-Aminomethyl-phenylacetyl](1c)*SE(2c)WQ[Dab](2c)[Y(2-aminoethoxy)][2-Nal][2-Me-Leu]E(1c)[Dab]-[NH2], reference compound] | 101% | 0.73 nM | 0.599 nM | – | – | 21 nM | 98% | – | – | – | – | – | – | –
CC(C)C[C@]1(C)NC(=O)[C@H](Cc2c[nH]c3ccccc23)NC(=O)[C@H](Cc2c[nH]c3ccccc23)NC(=O)[C@@H]2CSCC(=O)CSC[C@H](NC(=O)[C@H]([C@@H](C)O)NC(=O)[C@@H](NC(=O)CN)CSCC(=O)CSC[C@@H](C(=O)N[C@@H](CO)C(N)=O)NC1=O)C(=O)N[C@@H](Cc1c[nH]c3ccccc13)C(=O)N[C@@H](CCC(=O)O)C(=O)N2 (single isomer, unassigned) [I5 (isomer 3), H-GC(1a)TC(2a)WEC(2a)WW[2-Me-Leu]C(1a)S-[NH2], reference compound] | – | 90 nM | – | – | – | – | – | – | – | – | – | – | – | 91%
